# Patent US10738028B2, “Spiro three-membered ring, spiro five-membered ring peptide deformylase inhibitor and use thereof in antibacteria and anti-tumor” (priority 2016, dated 2020)
# Columns and labels:
# Format in all cases: cell-based
# [1] = tested on: Enterococcus faecalis (EFA); assay: MIC, two-fold agar dilution (CLSI), clinical isolates
# Source text: (§1) 1. The invention adopts the two-fold agar dilution method recommended by the operating procedure of antimicrobial susceptibility testing set by American Clinical and Laboratory Standards Institute (CLSI) to determine the Minimum Inhibitory Concentration (MIC) of the test samples against the tested strains.
# [2] = tested on: Enterococcus faecium (EFM); assay: as above
# Source text: as §1
# [3] = tested on: Escherichia coli (including ESBLs, non-ESBLs); assay: as above
# Source text: as §1
# [4] = tested on: Moraxella catarrhalis (BCA); assay: as above
# Source text: as §1
# [5] = tested on: Streptococcus pneoumoniae (SPN); assay: as above
# Source text: as §1
# [6] = tested on: methicillin-resistant Staphylococcus aureus (MRSA); assay: as above
# Source text: as §1
# [7] = tested on: methicillin-resistant Staphylococcus epidermidis (MRSE); assay: as above
# Source text: as §1
# [8] = tested on: methicillin-sensitive Staphylococcus aureus (MSSA); assay: as above
# Source text: as §1
# [9] = tested on: methicillin-sensitive Staphylococcus epidermidis (MSSE); assay: as above
# Source text: as §1
# [10] = tested on: HCT-116 colorectal cancer cell line; assay: CCK-8 proliferation inhibition; conditions: Homo sapiens, HCT-116, 72 h, concentration of 30 μM; 72 hours; CCK-8; read-out: HCT116 inhibition rate/%
# Outline: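 Cells were plated overnight at 2000 cells/well, then compound in culture medium was added at a range of final concentrations. After 72 hours in a CO2 incubator, medium was replaced with 1:10 CCK-8 solution for the read-out.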
structure (smiles),measurement,setting,value
"O=CN(O)C[C@@H](CC1CCCC1)C(=O)N1CC2(CC2)C[C@H]1C(=O)N1CCS(=O)(=O)CC1 [Example 35, N—((R)-2-(cyclopentylmethyl)-3-((S)-6-(1,1-dioxythiomorpholine-4-carbonyl)-5-azaspiro[2.4]heptane-5-yl)-3-propylcarbonyl)-N-hydroxyformamide]",MIC (anti-bacterial activity),[1]; strain EFA 15-1,32 µg/mL
same,MIC (anti-bacterial activity),[1]; strain EFA 15-2,32 µg/mL
same,MIC (anti-bacterial activity),[1]; strain EFA 15-3,32 µg/mL
same,MIC (anti-bacterial activity),[1]; strain EFA 15-4,32 µg/mL
same,MIC (anti-bacterial activity),[1]; strain EFA 15-5,32 µg/mL
same,MIC (anti-bacterial activity),[1]; strain EFA 15-6,32 µg/mL
same,MIC (anti-bacterial activity),[1]; strain EFA 15-9,32 µg/mL
same,MIC (anti-bacterial activity),[2]; strain EFM 15-1,16 µg/mL
same,MIC (anti-bacterial activity),[2]; strain EFM 15-2,16 µg/mL
same,MIC (anti-bacterial activity),[2]; strain EFM 15-3,16 µg/mL
same,MIC (anti-bacterial activity),[2]; strain EFM 15-4,16 µg/mL
same,MIC (anti-bacterial activity),[2]; strain EFM 15-5,16 µg/mL
same,MIC (anti-bacterial activity),[2]; strain EFM 15-6,16 µg/mL
same,MIC (anti-bacterial activity),[3]; strain ECO+ 15-1,32 µg/mL
same,MIC (anti-bacterial activity),[3]; strain ECO+ 15-2,> 32 µg/mL
same,MIC (anti-bacterial activity),[3]; strain ECO+ 15-3,> 32 µg/mL
same,MIC (anti-bacterial activity),[3]; strain ECO+ 15-4,> 32 µg/mL
same,MIC (anti-bacterial activity),[3]; strain ECO− 15-1,> 32 µg/mL
same,MIC (anti-bacterial activity),[3]; strain ECO− 15-2,> 32 µg/mL
same,MIC (anti-bacterial activity),[3]; strain ECO− 15-3,> 32 µg/mL
same,MIC (anti-bacterial activity),[3]; strain ECO− 15-4,> 32 µg/mL
same,"Anti-bacterial activity (MIC), strain BCA 14-10",[4]; clinical isolate BCA 14-10,32 µg/mL
same,MIC (anti-bacterial activity),[4]; strain BCA 14-1,32 µg/mL
same,MIC (anti-bacterial activity),[4]; strain BCA 14-4,32 µg/mL
same,MIC (anti-bacterial activity),[4]; strain BCA 14-5,16 µg/mL
same,MIC (anti-bacterial activity),[4]; strain BCA 14-6,32 µg/mL
same,MIC (anti-bacterial activity),[4]; strain BCA 14-7,32 µg/mL
same,MIC (anti-bacterial activity),[4]; strain BCA 14-8,32 µg/mL
same,MIC (anti-bacterial activity),[5]; strain SPN 16-2,16 µg/mL
same,MIC (anti-bacterial activity),[5]; strain SPN 16-4,32 µg/mL
same,MIC (anti-bacterial activity),[6]; strain MRSA 15-1,16 µg/mL
same,MIC (anti-bacterial activity),[6]; strain MRSA 15-2,32 µg/mL
same,MIC (anti-bacterial activity),[6]; strain MRSA 15-3,16 µg/mL
same,MIC (anti-bacterial activity),[6]; strain MRSA 15-4,32 µg/mL
same,MIC (anti-bacterial activity),[7]; strain MRSE 15-1,16 µg/mL
same,MIC (anti-bacterial activity),[7]; strain MRSE 15-2,32 µg/mL
same,MIC (anti-bacterial activity),[7]; strain MRSE 15-3,32 µg/mL
same,MIC (anti-bacterial activity),[7]; strain MRSE 15-7,32 µg/mL
same,MIC (anti-bacterial activity),[8]; strain MSSA 15-3,32 µg/mL
same,MIC (anti-bacterial activity),[8]; strain MSSA 15-4,32 µg/mL
same,MIC (anti-bacterial activity),[8]; strain MSSA 15-5,32 µg/mL
same,MIC (anti-bacterial activity),[8]; strain MSSA 15-6,32 µg/mL
same,MIC (anti-bacterial activity),[9]; strain MSSE 15-3,32 µg/mL
same,MIC (anti-bacterial activity),[9]; strain MSSE 15-4,32 µg/mL
same,MIC (anti-bacterial activity),[9]; strain MSSE 15-5,32 µg/mL
same,MIC (anti-bacterial activity),[9]; strain MSSE 15-6,32 µg/mL
same,inhibition at 30 µM,[10],-1%
